From patent US20120122727A1, “IN VITRO METHOD FOR PREDICTING WHETHER A COMPOUND IS GENOTOXIC IN VIVO” (priority 2009, published 2012)

Tested on: primary mouse hepatocytes
Assay: Gene expression (Affymetrix Mouse Genome 430 2.0) in primary mouse hepatocytes, true vs false GTX, 24 h and 48 h
Conditions: log2, corrected for vehicle control

Nc1ccc([N+](=O)[O-])cc1N [4-NP, 4-Nitro-o-phenylenediamine]
Gene expression data AF000969 (Cadps2) (24 h average): −0.6839 | Gene expression data AF022072 (Grb10) (24 h average): 0.8486 | Gene expression data AF065917 (Lif) (24 h average): −0.4573 | Gene expression data AF204959 (Cyp3a25 /// LOC622249) (24 h average): −2.025 | Gene expression data AF297615 (Ggta1) (24 h average): −0.2797 | Gene expression data AI594683 (Dmn) (24 h average): −0.3517 | Gene expression data AI596632 (Ptprg /// LOC632664) (24 h average): −0.4962 | Gene expression data AI987929 (Ndrg1) (24 h average): 2.65 | Gene expression data AK004419 (Fbxl17) (24 h average): −0.0775 | Gene expression data AK005731 (1700007K13Rik) (24 h average): −0.5111 | Gene expression data AK007766 (1810044A24Rik) (24 h average): −0.1697 | Gene expression data AK007854 (1810053B23Rik) (24 h average): −1.736 | Gene expression data AK009736 (Gpr137b /// LOC664862 /// LOC673335) (24 h average): 1.582 | Gene expression data AK010447 (Smyd3) (24 h average): 0.4967 | Gene expression data AK014608 (4632434l11Rik) (24 h average): 0.2958 | Gene expression data AK019979 (2610528E23Rik) (24 h average): 0.9384 | Gene expression data AV095209 (Mthfd1l) (24 h average): 0.9072 | Gene expression data AV141095 (1110033M05Rik) (24 h average): 0.1789 | Gene expression data AV173571 (1700106N22Rik) (24 h average): −0.003133 | Gene expression data AV219418 (Ldhb) (24 h average): −1.032 | Gene expression data AV223474 (Zdhhc14) (24 h average): −0.08437 | Gene expression data AV298304 (Homez) (24 h average): −0.5839 | Gene expression data AV327248 (Zfp365 /// LOC674611) (24 h average): −0.08917 | Gene expression data AV377066 (9130221J18Rik) (24 h average): −1.695 | Gene expression data AW240761 (Tbc1d5) (24 h average): 0.02697 | Gene expression data AW543460 (Pard3) (24 h average): 0.9127 | Gene expression data AW543723 (24 h average): 0.6706 | Gene expression data AW986246 (Maoa) (24 h average): 1.7055 | Gene expression data BB027848 (4732466D17Rik) (24 h average): −1.7858 | Gene expression data BB043558 (9230114K14Rik) (24 h average): −0.4159 | Gene expression data BB275142 (AW456874) (24 h average): −0.4184 | Gene expression data BB308836 (Ppm1l) (24 h average): 0.03763 | Gene expression data BB318221 (Zdhhc14) (24 h average): 0.0942 | Gene expression data BB463610 (4632434l11Rik) (24 h average): 0.2106 | Gene expression data BB526605 (Mipol1) (24 h average): 1.641 | Gene expression data BB770528 (Rai2) (24 h average): −1.122 | Gene expression data BB821363 (Scfd2) (24 h average): −0.219 | Gene expression data BC004827 (Psat1) (24 h average): 0.5395 | Gene expression data BC008626 (Icam1) (24 h average): −2.248 | Gene expression data BC010462 (BC010462) (24 h average): −0.8654 | Gene expression data BC012247 (Dcxr) (24 h average): −1.5 | Gene expression data BC012260 (Psmf1) (24 h average): 0.1189 | Gene expression data BC015270 (Hist2h3c2) (24 h average): −0.7846 | Gene expression data BC016073 (Cdkal1) (24 h average): 0.3627 | Gene expression data BC016265 (Ube2e2) (24 h average): 0.03433 | Gene expression data BC019882 (Acaa1b) (24 h average): −1.259 | Gene expression data BC025501 (Aaas) (24 h average): −0.2167 | Gene expression data BC025837 (Sbk1) (24 h average): −0.8181 | Gene expression data BC025915 (Cova1) (24 h average): 0.3343 | Gene expression data BC026422 (Tgm1) (24 h average): −0.8176 | Gene expression data BF719766 (Thyn1) (24 h average): −0.2859 | Gene expression data BG065754 (Ccng1) (24 h average): −0.2503 | Gene expression data BG066903 (Kif16b) (24 h average): 1.005 | Gene expression data BG069873 (Gnb1l) (24 h average): −0.1326 | Gene expression data BG070887 (Gtdc1) (24 h average): 0.3432 | Gene expression data BG076151 (Ppm1d) (24 h average): −0.2933 | Gene expression data BG261907 (Large) (24 h average): 0.3643 | Gene expression data BI651416 (Cdc42bpg) (24 h average): −0.0339 | Gene expression data BI660702 (Ell3) (24 h average): −0.609 | Gene expression data BM198879 (Ercc5) (24 h average): −0.3288 | Gene expression data BM230508 (A030007D23Rik) (24 h average): −0.6065 | Gene expression data NM_007987 (Fas) (24 h average): −1.231 | Gene expression data NM_008522 (Ltf) (24 h average): −0.3018 | Gene expression data NM_008576 (Abcc1) (24 h average): 1.696 | Gene expression data NM_011176 (St14) (24 h average): −0.5717 | Gene expression data NM_011316 (Saa4) (24 h average): −0.5909 | Gene expression data NM_012006 (Acot1) (24 h average): −1.4501 | Gene expression data NM_013866 (Zfp385) (24 h average): −0.2808 | Gene expression data NM_018770 (Igsf4a) (24 h average): 0.3868 | Gene expression data NM_021451 (Pmaip1) (24 h average): −1.505 | Gene expression data NM_025770 (Atg10) (24 h average): 1.051 | Gene expression data NM_028803 (Gbe1) (24 h average): 0.3633 | Gene expression data NM_030697 (Ankrd47) (24 h average): 0.1816 | Gene expression data NM_053168 (Trim11) (24 h average): −0.1598 | Gene expression data NM_134188 (Acot2) (24 h average): −0.7637 | Gene expression data Y15910 (Diap2) (24 h average): −0.5398 | Gene expression AA561726 average (48 h): −0.08 | Gene expression AF000969 average (48 h): −0.8202 | Gene expression AF022072 average (48 h): 0.6062 | Gene expression AF033112 average (48 h): 0.152 | Gene expression AF055573 average (48 h): −0.1973 | Gene expression AF069954 average (48 h): −0.4429 | Gene expression AF297615 average (48 h): −1.352 | Gene expression AF335325 average (48 h): 0.5071 | Gene expression AI594683 average (48 h): −0.4763 | Gene expression AI747296 average (48 h): −0.3288
